# Measured values reported in US12281122B1, “PI3K inhibitors” (Cogent Biosciences, Inc., priority 2023, dated 2025).
# How the values were obtained:
# [1] = test system: SKBR3 (PI3Kα-Wild Type) cell line; assay: HTRF phospho-AKT(S473) cell assay in SKBR3 cells; assay type: cell-based, human
# How it was run: (§1)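 pAKT(S473) in lysates read by HTRF after a 2 h, 37 °C compound exposure (12-point 1:3 series, max 0.5% DMSO). SKBR3 (wild type, top 10 μM) received 70 ng/ml PDGF-BB during the final 15 min; T47D (H1047R, top 5 μM) was unstimulated. IC50 values derived from the dose-response.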
# [2] = test system: T47D (PI3Kα-H1047R) cell line; assay: HTRF phospho-AKT(S473) cell assay in T47D cells; assay type: cell-based, human
# How it was run: as §1
# [3] = Homo sapiens, SK-BR-3; HTRF phospho-AKT(S473), SKBR3 (PI3Kα-Wild Type) cells, 2 hours compound incubation, PDGF-BB stimulated
# [4] = Homo sapiens; HTRF phospho-AKT(S473), T47D (PI3Kα-H1047R) cells, 2 hours compound incubation
# [5] = Homo sapiens, SK-BR-3; SKBR3 (PI3Kα-Wild Type) cells, HTRF phospho-AKT(S473), 2 hours compound incubation, PDGF-BB stimulated
# [6] = Homo sapiens; T47D (PI3Kα-H1047R) cells, HTRF phospho-AKT(S473), 2 hours compound incubation
Structure (SMILES),"IC50 [1, 3] [nM]","IC50 [2, 4] [nM]","IC50 [1, 5] [nM]","IC50 [2, 6] [nM]",further results
"Cc1cc([C@@H](C)Nc2ccc(Cl)nc2C(=O)NS(C)(=O)=O)c2nc(N3CCC[C@@H](c4ccnn4C(F)F)C3)n(C)c(=O)c2c1 (relative stereo) [Compound 771, 6-chloro-3-(((R)-1-(2-((R*)-3-(1-(difluoromethyl)-1H-pyrazol-5-yl)piperidin-1-yl)-3,6-dimethyl-4-oxo-3,4-dihydroquinazolin-8-yl)ethyl)amino)-N-(methylsulfonyl) picolinamide]",≥ 5000,250 to 500,–,–,–
"Cc1cc([C@@H](C)Nc2ccc(Cl)nc2C(=O)NS(C)(=O)=O)c2nc(-c3ccc([C@@H]4CN(C)CCO4)cc3)n(C)c(=O)c2c1 (relative stereo) [Compound 803, 6-chloro-3-(((R)-1-(3,6-dimethyl-2-(4-((R*)-4-methylmorpholin-2-yl)phenyl)-4-oxo-3,4-dihydroquinazolin-8-yl)ethyl)amino)-N-(methylsulfonyl) picolinamide]",≥ 5000,< 250,–,–,–
"Cc1cc([C@@H](C)Nc2ccc(Cl)nc2C(=O)NS(C)(=O)=O)c2nc(N3CC[C@H](c4cnc(C)c(C#N)c4)C3)n(C)c(=O)c2c1 (single isomer, unassigned) [Compound 655, 6-chloro-3-(((R)-1-(2-((R*)-3-(5-cyano-6-methylpyridin-3-yl)pyrrolidin-1-yl)-3,6-dimethyl-4-oxo-3,4-dihydroquinazolin-8-yl)ethyl)amino)-N-(methylsulfonyl) picolinamide]",≥ 5000,1000 to 5000,–,–,–
"Cc1cc([C@@H](C)Nc2ccc(Cl)nc2C(=O)NS(C)(=O)=O)c2nc(N3CCCC(c4ncc(Cl)cn4)C3)n(C)c(=O)c2c1 (stereo in doubt) [Compound 587, 6-chloro-3-(((R)-1-(2-((R*)-3-(5-chloropyrimidin-2-yl)piperidin-1-yl)-3,6-dimethyl-4-oxo-3,4-dihydroquinazolin-8-yl)ethyl)amino)-N-(methylsulfonyl) picolinamide]",–,–,–,–,"IC50 ([1]; HTRF phospho-AKT(S473), SKBR3 (PI3Kα-Wild Type) cells, 2 hours compound incubation, PDGF-BB stimulated): ≥ 5000 nM; IC50 ([2]; HTRF phospho-AKT(S473), T47D (PI3Kα-H1047R) cells, 2 hours compound incubation): 250 to 500 nM"
"Cc1cc([C@@H](C)Nc2ccc(Cl)nc2C(=O)NS(C)(=O)=O)c2nc(N3CC4C[C@H]3CN4c3ccc(N(C)C)cc3)n(C)c(=O)c2c1 (stereo in doubt) [Compound 743, 6-chloro-3-(((R)-1-(2-((1S,4R)-5-(4-(dimethylamino)phenyl)-2,5-diazabicyclo [2.2.1]heptan-2-yl)-3,6-dimethyl-4-oxo-3,4-dihydroquinazolin-8-yl)ethyl)amino)-N-(methylsulfonyl) picolinamide]",≥ 5000,1000 to 5000,–,–,–
"CCS(=O)(=O)NC(=O)c1nc(Cl)ccc1N[C@H](C)c1cc(C)cc2c(=O)n(C)c(N3Cc4ccc(F)cc4C3)nc12 [Compound 110, (R)-6-chloro-N-(ethylsulfonyl)-3-((1-(2-(5-fluoroisoindolin-2-yl)-3,6-dimethyl-4-oxo-3,4-dihydroquinazolin-8-yl)ethyl)amino) picolinamide]",–,–,1000 to 5000,250 to 500,–
"COC(=O)NS(=O)(=O)c1nc(Cl)ccc1N[C@H](C)c1cc(C)cc2c(=O)n(C)c(N3Cc4ccc(F)cc4C3)nc12 [Compound 131, methyl (R)-((6-chloro-3-((1-(2-(5-fluoroisoindolin-2-yl)-3,6-dimethyl-4-oxo-3,4-dihydroquinazolin-yl)ethyl)amino)pyridin-2-yl)sulfonyl) carbamate]",–,–,≥ 5000,500 to 1000,–
"Cc1cc([C@@H](C)Nc2ccc(Cl)nc2C(=O)NS(C)(=O)=O)c2nc(N3Cc4cn(-c5ccnc(C)c5)nc4C3)n(C)c(=O)c2c1 [Compound 146, (R)-6-chloro-3-((1-(3,6-dimethyl-2-(2-(2-methylpyridin-4-yl)-2,6-dihydropyrrolo[3,4-c]pyrazol-5(4H)-yl)-4-oxo-3,4-dihydroquinazolin-8-yl)ethyl)amino)-N-(methylsulfonyl) picolinamide]",–,–,1000 to 5000,< 250,–
"Cc1cc([C@@H](C)Nc2ccc(Cl)nc2C(=O)NS(C)(=O)=O)c2nc(N3Cc4cn(-c5ccccc5)nc4C3)n(C)c(=O)c2c1 [Compound 147, (R)-6-chloro-3-((1-(3,6-dimethyl-4-oxo-2-(2-phenyl-2,6-dihydropyrrolo[3,4-c]pyrazol-5(4H)-yl)-3,4-dihydroquinazolin-8-yl)ethyl)amino)-N-(methylsulfonyl) picolinamide]",–,–,≥ 5000,250 to 500,–

# The next lines start with results.
"IC50 [1, 3] [nM]","IC50 [2, 4] [nM]","IC50 [1, 5] [nM]","IC50 [2, 6] [nM]",Structure (SMILES),further results
1000 to 5000,< 250,–,–,"Cc1cc([C@@H](C)Nc2ccc(Cl)nc2C(=O)NS(C)(=O)=O)c2nc(N3CC[C@@H](c4ccnc(C)c4)C3)n(C)c(=O)c2c1 (relative stereo) [Compound 764, 6-chloro-3-(((R)-1-(3,6-dimethyl-2-((R*)-3-(2-methylpyridin-4-yl)pyrrolidin-1-yl)-4-oxo-3,4-dihydroquinazolin-8-yl)ethyl)amino)-N-(methylsulfonyl) picolinamide]",–
≥ 5000,250 to 500,–,–,"Cc1cc([C@@H](C)Nc2ccc(Cl)nc2C(=O)NS(C)(=O)=O)c2nc(N3CCC[C@@H](c4ccn(C(F)F)n4)C3)n(C)c(=O)c2c1 (relative stereo) [Compound 768, 6-chloro-3-(((R)-1-(2-((R*)-3-(1-(difluoromethyl)-1H-pyrazol-3-yl)piperidin-1-yl)-3,6-dimethyl-4-oxo-3,4-dihydroquinazolin-8-yl)ethyl)amino)-N-(methylsulfonyl) picolinamide]",–
1000 to 5000,< 250,–,–,"Cc1cc([C@@H](C)Nc2ccc(Cl)nc2C(=O)NS(C)(=O)=O)c2nc(N3CC[C@H](c4ccnc(C)c4)C3)n(C)c(=O)c2c1 (relative stereo) [Compound 769, 6-chloro-3-(((R)-1-(3,6-dimethyl-2-((R*)-3-(2-methylpyridin-4-yl)pyrrolidin-1-yl)-4-oxo-3,4-dihydroquinazolin-8-yl)ethyl)amino)-N-(methylsulfonyl) picolinamide]",–
≥ 5000,250 to 500,–,–,"Cc1cc([C@@H](C)Nc2ccc(Cl)nc2C(=O)NS(C)(=O)=O)c2nc(N3CCC[C@H](c4ccn(C(F)F)n4)C3)n(C)c(=O)c2c1 (relative stereo) [Compound 770, 6-chloro-3-(((R)-1-(2-((R*)-3-(1-(difluoromethyl)-1H-pyrazol-3-yl)piperidin-1-yl)-3,6-dimethyl-4-oxo-3,4-dihydroquinazolin-8-yl)ethyl)amino)-N-(methylsulfonyl) picolinamide]",–
–,–,≥ 5000,250 to 500,"Cc1cc([C@@H](C)Nc2ccc(Cl)nc2C(=O)NS(C)(=O)=O)c2nc(N3C[C@H]4C[C@@H](c5cc[nH]n5)[C@@H]3C4)n(C)c(=O)c2c1 (single isomer, unassigned) [Compound 346, 3-(((R)-1-(2-((1S,4S,6R*)-6-(1H-pyrazol-3-yl)-2-azabicyclo[2.2.1]heptan-2-yl)-3,6-dimethyl-4-oxo-3,4-dihydroquinazolin-8-yl)ethyl)amino)-6-chloro-N-(methylsulfonyl) picolinamide]",–
–,–,≥ 5000,< 250,"Cc1cc([C@@H](C)Nc2ccc(Cl)nc2C(=O)NS(C)(=O)=O)c2nc(N3C[C@@H]4CC(n5cc(C)cn5)C[C@H]4C3)n(C)c(=O)c2c1 (single isomer, unassigned) [Compound 367, 6-chloro-3-(((R)-1-(3,6-dimethyl-2-((3aR*,6aR*)-5-(4-methyl-1H-pyrazol-1-yl)hexahydrocyclopenta [c]pyrrol-2(1H)-yl)-4-oxo-3,4-dihydroquinazolin-8-yl)ethyl)amino)-N-(methylsulfonyl) picolinamide]",–
–,–,≥ 5000,< 250,"Cc1cc([C@@H](C)Nc2ccc(Cl)nc2C(=O)NS(C)(=O)=O)c2nc(N3C[C@H]4CC(c5ccn(C)n5)C[C@@H]4C3)n(C)c(=O)c2c1 (single isomer, unassigned) [Compound 425, 6-chloro-3-(((R)-1-(3,6-dimethyl-2-((3aS*,6aS*)-5-(1-methyl-1H-pyrazol-3-yl)hexahydrocyclopenta [c]pyrrol-2(1H)-yl)-4-oxo-3,4-dihydroquinazolin-8-yl)ethyl)amino)-N-(methylsulfonyl) picolinamide]",–
–,–,≥ 5000,250 to 500,"Cc1cc([C@@H](C)Nc2ccc(Cl)nc2C(=O)NS(C)(=O)=O)c2nc(N3C[C@@H]4CC(c5ccn(C)n5)C[C@H]4C3)n(C)c(=O)c2c1 (single isomer, unassigned) [Compound 426, 6-chloro-3-(((R)-1-(3,6-dimethyl-2-((3aR*,6aR*)-5-(1-methyl-1H-pyrazol-3-yl)hexahydrocyclopenta [c]pyrrol-2(1H)-yl)-4-oxo-3,4-dihydroquinazolin-8-yl)ethyl)amino)-N-(methylsulfonyl) picolinamide]",–
≥ 5000,250 to 500,–,–,"Cc1cc([C@@H](C)Nc2ccc(Cl)nc2C(=O)NS(C)(=O)=O)c2nc(N3C[C@H]4CC(n5cc(C)cn5)C[C@@H]4C3)n(C)c(=O)c2c1 (single isomer, unassigned) [Compound 676, 6-chloro-3-(((R)-1-(3,6-dimethyl-2-((3aS*,6aS*)-5-(4-methyl-1H-pyrazol-1-yl)hexahydrocyclopenta [c]pyrrol-2(1H)-yl)-4-oxo-3,4-dihydroquinazolin-8-yl)ethyl)amino)-N-(methylsulfonyl) picolinamide]",–
